Experiments:
[1] = biological target: T1, Collagenase from neutrophiles (MMP-8) (Homo sapiens, UniProt P22894); experiment: Inhibition of human enzyme Collagenase from neutrophiles (MMP-8), fluorescent substrate; format: biochemical; conditions: expressed qualitatively; enzyme activated with p-aminomercuryacetate
T1 construct: G. Murphy (Strangeways Labs., Cambridge, UK); host or cells: human cell cultures
Description: (§1) The snythetized compounds were also tested on the enzyme of human orgin Gelatinase A, known also as MMP-2 (Matrix Metalloproteinase n. 2). The pure enzyme, extracted from human cultures and obtained from Pro. G. Murphy (Strangeways Labs., Cambridge, UK), was first activated with p-amino-mercuryacetate, and proteolytic activity was evidentiated with the use of an artificial fluorescent substratum MCA-PRO-LEU-GLY-LEU-DPA-ALA-ARG-NH2 (Strangeways Labs.), in spectrofluorimeter Perkin Elmer L 50B fixed at 328 nm for excitation and 393 nm for emission. To test inhibitory activity, synthetized compounds were incubated for 3 hours at room temperature in the presence of the enzyme, before adding the substratum.
The new synthetized derivatives were also tested on another zinc-dependent metalloproteinase of human orgin: the Collagenase from neutrophiles, also known as MMP-8 (Matrix Metalloproteinase N. 8). The pure enzyme extracted from human cell cultures and obtained from Prof. G. Murphy (Strangeways Labs., Cambridge, UK), was activated with p-aminomercuryacetate (2 hours at 37° C.), and enzymatic activity was followed by the spectrofluorimeter in the same way as described in the previous chapter.

Adamalysin II = Adamalysin II (Crotalus adamanteus, UniProt P34179); experiment: biochemical
Gelatinase A (MMP-2) = biological target: T2, Gelatinase A (MMP-2) (Homo sapiens, UniProt P08253); experiment: Inhibition of the human enzyme Gelatinase A (MMP-2), fluorescent substrate; format: biochemical; conditions: expressed qualitatively; compounds incubated 3 hours at room temperature with enzyme before substrate
T2 construct: G. Murphy (Strangeways Labs., Cambridge, UK); host or cells: human cultures
T2 sequence (P08253 110-660): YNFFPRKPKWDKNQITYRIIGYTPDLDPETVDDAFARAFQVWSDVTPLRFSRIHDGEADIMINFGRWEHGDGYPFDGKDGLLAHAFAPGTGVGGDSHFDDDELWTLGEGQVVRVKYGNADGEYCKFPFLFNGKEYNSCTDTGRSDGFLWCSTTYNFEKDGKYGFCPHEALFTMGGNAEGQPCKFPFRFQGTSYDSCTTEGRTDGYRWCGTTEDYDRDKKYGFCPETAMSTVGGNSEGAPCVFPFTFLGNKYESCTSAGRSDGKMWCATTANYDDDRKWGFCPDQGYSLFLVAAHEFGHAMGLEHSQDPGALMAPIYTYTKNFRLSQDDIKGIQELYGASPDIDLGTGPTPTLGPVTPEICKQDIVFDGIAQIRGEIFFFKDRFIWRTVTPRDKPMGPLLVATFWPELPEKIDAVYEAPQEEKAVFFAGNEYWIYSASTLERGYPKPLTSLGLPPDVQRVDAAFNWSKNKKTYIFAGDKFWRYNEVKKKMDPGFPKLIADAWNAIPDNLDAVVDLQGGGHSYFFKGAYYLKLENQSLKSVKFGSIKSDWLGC
Description: as §1

T1 sequence (P22894 101-467): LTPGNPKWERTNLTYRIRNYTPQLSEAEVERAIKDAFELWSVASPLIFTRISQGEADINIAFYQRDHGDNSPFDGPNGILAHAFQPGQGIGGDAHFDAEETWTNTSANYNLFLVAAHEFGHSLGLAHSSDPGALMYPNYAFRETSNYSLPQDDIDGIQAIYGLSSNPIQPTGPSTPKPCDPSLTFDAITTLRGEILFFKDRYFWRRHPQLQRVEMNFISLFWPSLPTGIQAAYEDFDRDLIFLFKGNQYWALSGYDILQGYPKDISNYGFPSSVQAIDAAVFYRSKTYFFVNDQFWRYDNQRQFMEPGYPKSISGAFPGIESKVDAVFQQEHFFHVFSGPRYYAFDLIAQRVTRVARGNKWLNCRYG
Sequence of Adamalysin II (P34179 whole entry, looked up): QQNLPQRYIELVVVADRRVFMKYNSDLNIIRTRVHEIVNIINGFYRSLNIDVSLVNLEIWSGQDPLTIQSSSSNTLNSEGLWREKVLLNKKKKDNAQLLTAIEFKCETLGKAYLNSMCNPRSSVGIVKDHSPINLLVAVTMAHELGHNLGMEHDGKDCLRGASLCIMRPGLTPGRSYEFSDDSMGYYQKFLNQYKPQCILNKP

## CCOP(=O)(OCC)C(Cc1c[nH]c2ccccc12)NC(=O)[C@H](CC(C)C)NC(=O)[C@@H]1CSC(=O)N1 (stereo partly drawn) [Compound n.3f, N-{[(R)-(2-oxo-thiazolidine-4-yl)carbonyl]}-L-leucyl-(1)-phosphotryptophan diethylester]
[1]
  INHIBITION: Good
Adamalysin II
  IC50: 1 µM
Gelatinase A (MMP-2)
  INHIBITION: Fair

## CCOP(=O)(OCC)C(Cc1c[nH]c2ccccc12)NC(=O)[C@H](CC(C)C)NC(=O)c1ccco1 (stereo partly drawn) [Compound n.3a, N-[(furan-2-yl)carbonyl]-L-leucyne-(1)-phosphotryptophan diethylester]
[1]
  INHIBITION: Fair
Adamalysin II
  IC50: 0.4 µM
Gelatinase A (MMP-2)
  INHIBITION: Fair

## CCOP(=O)(OCC)C(Cc1c[nH]c2ccccc12)NC(=O)[C@H](CC(C)C)NC(=O)[C@@H]1CCC(=O)O1 (stereo partly drawn) [Compound n.3e, N-{[(S)-(5-oxo-tetrahydrofuran-2-yl)carbonyl]}-L-leucyl-(1)-phosphotryptophan diethylester]
[1]
  INHIBITION: Fair
Adamalysin II
  IC50: 0.55 µM
Gelatinase A (MMP-2)
  INHIBITION: Fair

## CCOP(=O)(OCC)C(Cc1c[nH]c2ccccc12)NC(=O)[C@H](CC(C)C)NC(=O)[C@@H]1CCCN1C(=O)OCc1ccccc1 (stereo partly drawn) [Compound n.3c, N-benzyloxycarbonyl-L-pyrolyl-L-eucyl-(1)-phosphtryptophan diethylester]
[1]
  INHIBITION: Good
Adamalysin II
  IC50: 22 µM
Gelatinase A (MMP-2)
  INHIBITION: Good

## CCOP(=O)(OCC)C(Cc1c[nH]c2ccccc12)NC(=O)[C@H](CC(C)C)NC(=O)c1ccc[nH]1 (stereo partly drawn) [Compound n.3b, N-[(Pyrrol-2-yl)carbonyl]-L-leucyl-(1)-phosphotryptophan diethylester]
[1]
  INHIBITION: Good
Adamalysin II
  IC50: 0.22 µM
Gelatinase A (MMP-2)
  INHIBITION: Good

## CC(C)C[C@H](NC(=O)c1ccco1)C(=O)NC(Cc1c[nH]c2ccccc12)P(=O)(OCc1ccccc1)OCc1ccccc1 (stereo partly drawn) [Compound n.9, N-[(Furan-2-yl)carbonyl]-L-leucyl-(1)-phosphotryptophan dibenzylester]
[1]
  INHIBITION: Fair
Adamalysin II
  IC50: 7.2 µM
Gelatinase A (MMP-2)
  INHIBITION: None

From US6339160B1 (priority 1997, dated 2002)
